According to PubChem BioAssay (NCI):
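Values below derive from 48-hour exposures of cells grown in 96-well plates, with endpoints linearly interpolated between the two concentrations bracketing the appropriate inhibition level. TGI is the concentration that stops growth completely.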

Assays:
Test in all cases: inhibition of tumour cell growth, NCI panel, 48 h
IGROV1 ovarian = tested on: IGROV1 ovarian
MDA-MB-231 breast = tested on: MDA-MB-231 breast
SF-539 CNS = tested on: SF-539 CNS
SN12C renal = tested on: SN12C renal
HT29 colon = tested on: HT29 colon
M14 melanoma = tested on: M14 melanoma
MOLT-4 leukemia = tested on: MOLT-4 leukemia
KM12 colon = tested on: KM12 colon
HS 578T breast = tested on: HS 578T breast
RPMI-8226 leukemia = tested on: RPMI-8226 leukemia
SK-MEL-28 melanoma = tested on: SK-MEL-28 melanoma
U251 CNS = tested on: U251 CNS
HCC-2998 colon = tested on: HCC-2998 colon
MCF7 breast = tested on: MCF7 breast
SNB-19 CNS = tested on: SNB-19 CNS
OVCAR-5 ovarian = tested on: OVCAR-5 ovarian
K-562 leukemia = tested on: K-562 leukemia
NCI-H23 lung = tested on: NCI-H23 lung
NCI-H522 lung = tested on: NCI-H522 lung
HCT-116 colon = tested on: HCT-116 colon
SF-295 CNS = tested on: SF-295 CNS
DU-145 prostate = tested on: DU-145 prostate
CAKI-1 renal = tested on: CAKI-1 renal
BT-549 breast = tested on: BT-549 breast
COLO 205 colon = tested on: COLO 205 colon
TK-10 renal = tested on: TK-10 renal
SK-OV-3 ovarian = tested on: SK-OV-3 ovarian
EKVX NSCLC = tested on: EKVX NSCLC
HCT-15 colon = tested on: HCT-15 colon
PC-3 prostate = tested on: PC-3 prostate
MDA-N = tested on: MDA-N
HOP-62 NSCLC = tested on: HOP-62 NSCLC
SK-MEL-2 melanoma = tested on: SK-MEL-2 melanoma
UO-31 renal = tested on: UO-31 renal
MALME-3M melanoma = tested on: MALME-3M melanoma
A549 NSCLC = tested on: A549 NSCLC
UACC-257 melanoma = tested on: UACC-257 melanoma
T-47D breast = tested on: T-47D breast
SR leukemia = tested on: SR leukemia
LOX IMVI melanoma = tested on: LOX IMVI melanoma
SK-MEL-5 melanoma = tested on: SK-MEL-5 melanoma
A498 renal = tested on: A498 renal
SF-268 CNS = tested on: SF-268 CNS
786-0 renal = tested on: 786-0 renal
NCI/ADR-RES ovarian = tested on: NCI/ADR-RES ovarian
MDA-MB-435 = tested on: MDA-MB-435
SNB-75 CNS = tested on: SNB-75 CNS
SW-620 colon = tested on: SW-620 colon
HL-60(TB) leukemia = tested on: HL-60(TB) leukemia
NCI-H226 lung = tested on: NCI-H226 lung
RXF 393 renal = tested on: RXF 393 renal
ACHN renal = tested on: ACHN renal
CCRF-CEM leukemia = tested on: CCRF-CEM leukemia
OVCAR-3 ovarian = tested on: OVCAR-3 ovarian
OVCAR-8 ovarian = tested on: OVCAR-8 ovarian
NCI-H460 lung = tested on: NCI-H460 lung
UACC-62 melanoma = tested on: UACC-62 melanoma
OVCAR-4 ovarian = tested on: OVCAR-4 ovarian

Measured: TGI

Nc1n[n+]([O-])c2ccc(Cl)cc2[n+]1[O-]
58.9 µM: HCT-15 colon
79.7 µM: HOP-62 NSCLC
67.7 µM: SK-MEL-28 melanoma
80.1 µM: EKVX NSCLC
30.9 µM: COLO 205 colon
55.5 µM: HCC-2998 colon
74.2 µM: MDA-MB-435
32.6 µM: KM12 colon
96.6 µM: A498 renal
38.2 µM: NCI-H522 lung
73.5 µM: MDA-N
54.1 µM: RXF 393 renal
54.3 µM: UACC-257 melanoma
79 µM: OVCAR-5 ovarian
99.4 µM: T-47D breast
58.7 µM: SF-539 CNS
72.9 µM: NCI-H226 lung
16.5 µM: SK-MEL-5 melanoma
25.3 µM: IGROV1 ovarian
67.3 µM: U251 CNS
59 µM: MALME-3M melanoma
61.2 µM: SW-620 colon
52.9 µM: SK-OV-3 ovarian
40.4 µM: M14 melanoma
29.2 µM: BT-549 breast
77 µM: HT29 colon
91.2 µM: CAKI-1 renal
46.4 µM: NCI-H23 lung
not listed: OVCAR-3 ovarian | OVCAR-8 ovarian | NCI-H460 lung | UACC-62 melanoma | OVCAR-4 ovarian
> 100 µM: all other assays above

Cc1[nH]c(=O)nc(N/N=C/c2c3ccccc3c(Cl)c3ccccc23)c1C(=O)Nc1ccc(Cl)cc1
44.7 µM: HL-60(TB) leukemia
89.3 µM: CCRF-CEM leukemia
not listed: SF-539 CNS | KM12 colon | HS 578T breast | SF-295 CNS | COLO 205 colon | SK-OV-3 ovarian | EKVX NSCLC | NCI/ADR-RES ovarian | RXF 393 renal
> 100 µM: all other assays above
